Experimental data reported in patent US20260256716A1, “COMPOSITIONS AND METHODS OF USE THEREOF” (Board of Supervisors of Louisiana State University and …, priority 2023, published 2026).

Assays:
A549 cells = test: Cell viability after cumene peroxide oxidative stress (Hoechst / propidium iodide); type: cell-based
Experimental: A549 cells were treated with the indicated concentrations of R-DOI (panel A) or 2C-iBu (panel B) and subsequently exposed to cumene peroxide to oxidatively stress cells. Cell viability was visualized by staining with Hoescht (Blue) to mark total cells (live plus dead) and propidium iodide (red) to mark dead cells.

ARPE-19 cells = test: Hyperglycemia induced SA-β-Gal cellular senescence in ARPE-19 cells (HPLM); type: cell-based, human; conditions: 10 nM; HPLM with 5, 10, 20 or 30 mM glucose, 72 hours
Experimental: Consistent with Retinal Deterioration by Glucose-Induced Cellular Senescence in the Diabetic Population, Hyperglycemic conditions induce increased disease promoting Cellular Senescence that is abrogated by low nM concentrations of the Representative 5-HT2A Receptor Agonist, R-DOI Returning to Base-line Homeostatic Levels. ARPE-19 cells in physiologically relevant media (HPLM; 7% FCS) were seeded overnight prior to being replaced with starvation media (HPLM 0.5% FCS) containing 10 nM R-DOI. After overnight incubation in starvation media, cells were swapped to media containing diabetic blood glucose levels (HPLM 7% FCS containing 5 mM, 10 mM, 20 mM, or 30 mM glucose) for 72-hours. After the 72-hour incubation, cells were fixed and stained for SA-β-Gal for 6-hours. Cells nuclei were then stained with DAPI for total-cell enumeration. SA-β-Gal positive cells, and total cells per frame, were quantified by microscopy. Pathological/diabetic glucose concentrations induce cellular senescence. 5-HT2A receptor agonism alleviates glucose-induced senescence at diabetic blood glucose levels. […]
Effects of specific phenethylamine 5-HT2A receptor agonists on reduction of Hyperglycemia induced Disease Promoting Cellular Senescence: Inhibition of Cell Senescence and Disease Processes are Drug and Dose Dependent. […] SA-3-Gal positive cells, and total cells per frame, were quantified by microscopy. For each 5-HT2A agonist assessed, the % of senescent cells is expressed relative to the hyperglycemic control. […]
Inhibition of Cell Senescence and Disease Processes are Drug and Dose Dependent. […] SA-β-Gal positive cells, and total cells per frame, were quantified by microscopy. For each 5-HT2A agonist assessed, the % of senescent cells is expressed relative to the hyperglycemic control. […]

## COc1cc(C[C@@H](C)N)c(OC)cc1I (single isomer, unassigned) [R-DOI, R enantiomer 2,5-Dimethoxy-4-iodoamphetamine]
A549 cells
  oxidative stress-induced cell death: protected cells from oxidative stress-induced cell death
ARPE-19 cells
  hyperglycemia induced cellular senescence (SA-β-Gal positive cells): abrogated
